Assays:
tau aggregates [1] = target: T1, tau aggregates (Homo sapiens, UniProt P10636); assay: Compound and antibody AT100 double staining of AD brain tissue sections; assay type: binding; settings: for Labelling of immune-positive NFTs and dystrophic neurites / Fluorescence from tested compound observed / Overlap between Fluorescence from tested compound and fluorescence from AT-100 observed: 100 nM compound; for Labelling of immune-positive NFTs and dystrophic neurites: AT100 co-staining, AD brain sections; for Fluorescence from tested compound observed / Overlap between Fluorescence from tested compound and fluorescence from AT-100 observed: human AD brain tissue sections; for Fluorescence from tested compound observed: double staining with tau antibody AT-100; for Overlap between Fluorescence from tested compound and fluorescence from AT-100 observed: tau antibody AT-100; for Fluorescence from AT-100 observed: signal of tau antibody AT-100 in the section stained with 100 nM of the compound
T1 construct: tissue sections (20 μm) from human AD brain; from tissue; host or cells: human AD brain tissue sections (20 μm)
Method: (§1) To achieve compound and antibody double staining of Aβ or tau aggregates, tissue sections (20 μm) from human AD brain were fixed in 70% EtOH at 4° C. for 3 min, rehydrated in distilled water and then incubated in PBS for 30 min. Sections were blocked and permeabilized in PBS with 5% normal goat serum and 0.1% triton X-100 (blocking buffer) for 1 h at room temperature (RT). Antibody 4G8 (Biolegend, San Diego, Calif., USA) reactive to Aβ, and AT100 (Thermo Fisher Scientific, Waltham, Mass., USA) directed against tau phosphorylated at […] (3) were diluted 1:500 and 1:1000, respectively, in blocking buffer and added to the sections. After 16 h incubation at 4° C. unbound antibody was removed by washing in PBS with 0.1% triton X-100 (PBS-T) 3×10 min. To visualize antibody binding to Aβ or tau aggregates sections were incubated with goat anti-mouse secondary antibody labelled with Alexa 647 (Thermo Fisher Scientific). The antibody was diluted 1:200 in blocking buffer and after 1 h incubation at RT sections were washed in PBS 3×10 min. Example Compound 3a, Example Compound 3b, Example Compound 3c, Example Compound 3d, Example Compound 3e, Example Compound 3f, Example Compound 3g, Example Compound 3h, Example Compound 3i, Example Compound 3j, Example Compound 3k, Example Compound 3m, Example Compound 3n, Example Compound 3o, Example Compound 3p, Example Compound 3q, Example Compound 3r, Example Compound 3s, Example Compound 3t, Example Compound 3u, Example Compound 8a, Comparative Example 1, Comparative Example 2, Comparative Example 3 and Comparative Example 4 were dissolved in DMSO to a concentration of 1.5 mM and then further diluted in PBS to a final concentration of 100 nM compound prior to staining. The tissue sections were then stained for 30 min at RT with these freshly prepared solutions containing 100 nM of the respective compound in PBS. After three washes in PBS the sections were mounted in Dako mounting medium for fluorescence (Dako Cytomation, Glostrup, Denmark) and allowed to dry overnight before analysis. Fluorescence images were collected using an inverted LSM 780 confocal microscope (Carl Zeiss, Oberkochen, Germany) with the following excitation/emission wavelengths optimized for each compound: 458/484-600 (Comparative Example 1, Comparative Example 3), 561/569-648 (Example Compound 3a, Example Compound 3b, Example Compound 3c, Example Compound 3d, Example Compound 3e, Example Compound 3f, Example Compound 3g, Example Compound 3h, Example Compound 3i, Example Compound 3j, Example Compound 3k, Example Compound 3m, Example Compound 3n, Example Compound 3o, Example Compound 3p, Example Compound 3q, Example Compound 3r, Example Compound 3s, Example Compound 3t, Example Compound 3u, Example Compound 8a, Comparative Example 2 and Comparative Example 4) and 633/638-755 (Alexa 647). To visualize autofluorescent lipofuscin excitation/emission wavelengths 405/410-480 or 405/410-514 were used.

tau aggregates [2] = target: T1, tau aggregates; assay: Example Compound 3b staining of AD brain sections pre-incubated with q-FTAA-CN; assay type: binding; settings: FIG. 7H, pre-incubated with 1 μM q-FTAA-CN, then 10 nM Example Compound 3b
Method: (§2) Frozen brain sections (20 μm) were fixed in 96% EtOH, rehydrated in 50% EtOH and de-ionized water and then incubated in phosphate buffered saline (PBS, 10 mM phosphate, 140 mM NaCl, 2.7 mM KCl, pH 7.4) for 10 min. The sections were stained with solutions containing 1 ? M PBB3 or 1 ? M q-FTAA-CN in PBS for 30 min and after rinsing three times with PBS, the sections was stained with a solution containing 10 nM Example Compound 3b. After 30 min, the sections were washed with PBS and mounted with Dako fluorescent mounting medium (Dako Cytomation, Glostrup, Denmark). The mounting medium was allowed to solidify over night before collecting emission spectra of the compounds bound to misfolded Aβ and tau using an inverted LSM 780 confocal microscope (Carl Zeiss, Oberkochen, Germany) with excitation wavelengths at 405 nm (PBB3 and q-FTAA-CN) and 561 nm (Example Compound 3b).

Aβ and tau deposits [3] = assay: Co-staining of AD brain sections with PBB3 and Example Compound 3b; assay type: binding, human; settings: simultaneous 100 nM PBB3 and 100 nM Example Compound 3b
Method: (§3) Frozen brain sections (20 μm) were fixed in 96% EtOH, rehydrated in 50% EtOH and de-ionized water and then incubated in phosphate buffered saline (PBS, 10 mM phosphate, 140 mM NaCl, 2.7 mM KCl, pH 7.4) for 10 min. Solutions containing 100 nM PBB3 and 100 nM Example Compound 3b or 100 nM q-FTAA-CN and 100 nM Example Compound 3a in PBS were added to the sections. After 30 min, the sections were washed with PBS and mounted with Dako fluorescent mounting medium (Dako Cytomation, Glostrup, Denmark). The mounting medium was allowed to solidify over night before collecting emission spectra of the compounds bound to misfolded A ? and tau using an inverted LSM 780 confocal microscope (Carl Zeiss, Oberkochen, Germany) with excitation wavelengths at 405 nm (PBB3 and q-FTAA-CN) and 561 nm (Example Compound 3a and Example Compound 3b).

Aβ aggregates = target: T2, Aβ aggregates (Homo sapiens, UniProt P05067); assay: Compound and antibody 4G8 double staining of AD brain tissue sections; assay type: binding; settings: for Overlap between Fluorescence from tested compound and fluorescence from 4G8 observed / Fluorescence from tested compound observed: 100 nM compound, human AD brain tissue sections; for Overlap between Fluorescence from tested compound and fluorescence from 4G8 observed: Aβ antibody 4G8; for Fluorescence from tested compound observed: double staining with Aβ antibody 4G8; for Fluorescence from 4G8 observed: signal of Aβ antibody 4G8 in the section stained with 100 nM of the compound
T2 construct: compound and antibody double staining of Aβ or tau aggregates; from tissue; host or cells: human AD brain tissue sections (20 μm)
Method: as §1

tau aggregates [4] = target: T1, tau aggregates; assay: Example Compound 3b staining of AD brain sections pre-incubated with PBB3 or PBS; assay type: binding
Method: as §2

Aβ and tau deposits [5] = assay: Co-staining of AD brain sections with q-FTAA-CN and Example Compound 3a; assay type: binding, human; settings: simultaneous staining, 100 nM q-FTAA-CN and 100 nM Example Compound 3a
Method: as §3

T1 sequence (P10636 1-441 isoform P10636-8): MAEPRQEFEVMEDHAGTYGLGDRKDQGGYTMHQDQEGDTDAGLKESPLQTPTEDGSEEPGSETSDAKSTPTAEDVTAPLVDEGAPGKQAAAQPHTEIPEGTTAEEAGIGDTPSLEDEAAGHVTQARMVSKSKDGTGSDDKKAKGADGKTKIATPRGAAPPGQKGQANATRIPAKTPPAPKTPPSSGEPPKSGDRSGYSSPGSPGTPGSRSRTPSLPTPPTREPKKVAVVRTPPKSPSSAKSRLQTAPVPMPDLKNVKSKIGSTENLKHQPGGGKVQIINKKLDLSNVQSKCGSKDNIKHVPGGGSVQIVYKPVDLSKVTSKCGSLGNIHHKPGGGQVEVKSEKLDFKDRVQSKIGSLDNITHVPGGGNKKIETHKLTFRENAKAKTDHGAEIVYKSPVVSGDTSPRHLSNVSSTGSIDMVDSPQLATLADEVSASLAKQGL
T2 sequence (P05067 672-713 limits assumed): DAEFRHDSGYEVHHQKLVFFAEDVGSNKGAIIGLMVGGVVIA

SMILES | Fluorescence from tested compound observed (tau aggregates [1]) | Overlap between Fluorescence from tested compound and fluorescence from AT-100 observed (tau aggregates [1]) | Fluorescence from AT-100 observed (tau aggregates [1]) | Overlap between Fluorescence from tested compound and fluorescence from 4G8 observed (Aβ aggregates) | Fluorescence from tested compound observed (Aβ aggregates) | Fluorescence from 4G8 observed (Aβ aggregates) | Labelling of immune-positive NFTs and dystrophic neurites (tau aggregates [1]) | further results
N#Cc1cc(CC(=O)O)c(-c2ccc(-c3sc(-c4ccc(C(=O)O)s4)cc3CC(=O)O)s2)s1 [q-FTAA-CN, reference compound] | – | – | – | – | – | – | – | Fluorescence from q-FTAA-CN observed (tau aggregates [2]): observed from both Aβ deposits (small arrow-heads) and tau aggregates and yes; Fluorescence from q-FTAA-CN observed (tau aggregates [2]; listed as q-FTAA): labelled both Aβ deposits and NFTs; Deposits labelled (Aβ and tau deposits [5]): selectively labelled Aβ deposits; Fluorescence from q-FTAA-CN observed (Aβ and tau deposits [5]; FIG. 7A-C): yes
COC(=O)c1ccc(-c2ccc(/C=C/c3sc4ccccc4[n+]3C)s2)s1.[I-] [Example Compound 3f] | yes | yes | yes | no correlation and no | yes | yes | labelled both immune-positive NFTs and dystrophic neurites | –
CC[n+]1c(/C=C/c2ccc(-c3ccc4c(c3)OCO4)s2)sc2ccccc21.[I-] [Example Compound 3m] | yes | yes | yes | no correlation and no | yes | yes | labelled both immune-positive NFTs and dystrophic neurites | –
CC[n+]1c(/C=C/c2ccc(-c3ccc4ncsc4c3)s2)sc2ccccc21.[I-] [Example Compound 3s] | yes | yes | yes | no correlation and no | yes | yes | labelled both immune-positive NFTs and dystrophic neurites | –
CC[n+]1c(/C=C/c2ccc(-c3ccc(C(=O)OC)[se]3)s2)[se]c2ccc(OC)cc21.[I-] [Example Compound 3p] | yes | yes | yes | no correlation and no | yes | yes | labelled both immune-positive NFTs and dystrophic neurites | –
CC[n+]1c(/C=C/c2ccc(-c3ccc(C(=O)OC)s3)s2)sc2ccccc21 [Example Compound 3a] | yes | yes | yes | no correlation and no | yes | yes | labelled both immune-positive NFTs and dystrophic neurites | Deposits labelled (Aβ and tau deposits [5]): tau aggregates (arrows) displayed Example Compound 3a fluorescence; Fluorescence from Example 3a observed (Aβ and tau deposits [5]; FIG. 7A-C): yes; Overlap between Fluorescence from Example 3a and fluorescence from q-FTAA-CN (Aβ and tau deposits [5]; FIG. 7A-C): no

More lines, main results first:

Fluorescence from tested compound observed (tau aggregates [1]) | Overlap between Fluorescence from tested compound and fluorescence from AT-100 observed (tau aggregates [1]) | Fluorescence from AT-100 observed (tau aggregates [1]) | Overlap between Fluorescence from tested compound and fluorescence from 4G8 observed (Aβ aggregates) | Fluorescence from tested compound observed (Aβ aggregates) | Fluorescence from 4G8 observed (Aβ aggregates) | SMILES | Labelling of immune-positive NFTs and dystrophic neurites (tau aggregates [1]) | further results
yes | yes | yes | no correlation and no | yes | yes | CC[n+]1c(/C=C/c2ccc(-c3ccc(I)s3)s2)sc2ccccc21 [Example Compound 3b] | labelled both immune-positive NFTs and dystrophic neurites | Fluorescence from Example Compound 3b observed (tau aggregates [2]): observed from the tau aggregates and could easily be observed from the q-FTAA-CN positive NFTs as well as from q-FTAA-CN negative dystrophic neurites and yes; Overlap between Fluorescence from Example Compound 3b and fluorescence from q-FTAA-CN (tau aggregates [2]): yes; Fluorescence from Example Compound 3b observed (Aβ and tau deposits [3]; FIG. 7E): yes; Overlap between Fluorescence from Example Compound 3b and fluorescence from PBB3 (Aβ and tau deposits [3]; FIG. 7E): no; Deposits labelled (Aβ and tau deposits [3]): tau deposits, NFTs and dystrophic neurites, displayed characteristic emission; Selectivity and affinity for tau deposits compared with PBB3 (Aβ and tau deposits [3]): higher selectivity and most likely a higher affinity for tau deposits than PBB3; Fluorescence from Example Compound 3b observed (tau aggregates [4]; FIG. 7F, pre-incubated with 1 μM PBB3, then 10 nM Example Compound 3b): no observable Example Compound 3b fluorescence and no; Fluorescence from Example Compound 3b observed (tau aggregates [4]; FIG. 7G, pre-incubated in PBS only, 10 nM Example Compound 3b): fluorescence was observed from the tau aggregates and yes
yes | yes | yes | no correlation and no | yes | yes | CC[n+]1c(/C=C/c2ccc(-c3ccc(C(=O)OC)s3)s2)sc2ccc(O)cc21.[I-] [Example Compound 3u] | labelled both immune-positive NFTs and dystrophic neurites | –
yes | yes | yes | no correlation and no | yes | yes | CC[n+]1c(/C=C/c2ccc(-c3cccs3)s2)sc2ccccc21 [Example Compound 3c] | labelled both immune-positive NFTs and dystrophic neurites | –

Source: patent US11434237B2, “Selective ligands for tau aggregates” (KARIN & STEN MORTSTEDT CBD SOLUTIONS AB, priority 2017, dated 2022)
